# Experimental data reported in article PMC3069126 (Journal of natural products, 2011).
# What was measured:
# ovine QR2 = test: Ultrafiltration LC-MS binding assay for QR2
# [1] = biological target: T1, quinone reductase 2 (QR2) (Homo sapiens, UniProt P16083); test: QR2 assay
# T1 sequence (P16083 1-231): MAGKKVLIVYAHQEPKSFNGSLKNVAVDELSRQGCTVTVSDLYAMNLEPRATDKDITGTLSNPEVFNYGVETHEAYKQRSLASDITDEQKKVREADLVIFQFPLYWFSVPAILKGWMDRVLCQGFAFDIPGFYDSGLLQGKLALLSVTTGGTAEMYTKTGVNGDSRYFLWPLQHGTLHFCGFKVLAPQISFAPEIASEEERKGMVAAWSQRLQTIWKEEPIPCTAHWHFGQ
# Hepa1c1c7 cells = test: Cytotoxicity assay; assay type: cell-based; conditions: Hepa-1c1c7, read-out: inhibition of Hepa1c1c7
# MCF-7 cells = test: Cytotoxicity assay; assay type: cell-based; conditions: Homo sapiens, MCF7, read-out: inhibition of MCF-7
structure (smiles),measurement,setting,value
"COc1c(-c2ccc(O)cc2)oc2cc(O[C@@H]3O[C@H](CO[C@@H]4O[C@@H](CO)[C@H](O)[C@H]4O)[C@@H](O)[C@H](O)[C@H]3O)cc(O)c2c1=O [Compound 10, 4′, 5,7-trihydroxy-3-methoxyflavone-7-O-α-L-arabinofuranosyl (1→6)-β-D-glucopyranoside]",response in LC-MS ultrafiltration binding assay with QR2,ovine QR2,positive response
"COc1c(-c2ccc(O)cc2)oc2cc(O[C@@H]3O[C@H](CO)[C@@H](O)[C@H](O)[C@H]3O)cc(O)c2c1=O [Compound 14, 4′, 5,7-trihydroxy-3-methoxyflavone-7-O-β-D-glucopyranoside]",response in LC-MS ultrafiltration binding assay with QR2,ovine QR2,positive response
"O=c1c(O[C@@H]2O[C@H](CO)[C@@H](O)[C@H](O)[C@H]2O)c(-c2ccc(O)c(O)c2)oc2cc(O)cc(O)c12 [Compound 15, quercetin-3-O-β-D-glucoside]",ability to inhibit QR2 (in words),[1],able to inhibit QR2
CC(=O)O[C@H]1C(=O)[C@@]2(C)[C@H]([C@H](OC(=O)c3ccccc3)[C@]3(O)C[C@H](OC(=O)[C@H](O)[C@@H](NC(=O)c4ccccc4)c4ccccc4)C(C)=C1C3(C)C)[C@]1(OC(C)=O)CO[C@@H]1C[C@@H]2O [paclitaxel],inhibition at 23.4 µM,Hepa1c1c7 cells,57%
same,inhibition at 23.4 µM,MCF-7 cells,64%
CC[C@]1(O)C[C@@H]2CN(CCc3c([nH]c4ccccc34)[C@@](C(=O)OC)(c3cc4c(cc3OC)N(C)[C@H]3[C@@](O)(C(=O)OC)[C@H](OC(C)=O)[C@]5(CC)C=CCN6CC[C@]43[C@@H]65)C2)C1 [vinblastine],inhibition at 49.4 µM,Hepa1c1c7 cells,90%
same,inhibition at 49.4 µM,MCF-7 cells,74%
